# Measured values: PubChem BioAssay AID1919004 (Molecular Pharmacology Branch, DTP, NCI, 2023)
# System: 883617-216-R-J1-PDC complex spheroids, growth, % test/control
# Test: Anticancer human tumor 883617-216-R-J1-PDC patient-derived bladder carcinoma cell line growth inhibition [AhR]
# Conditions: for IC50: curve of first compound; for viability, T/C: stronger effect = lower value
# Outline: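 Spheroids combined tumor cells with HUVEC endothelial cells and human MSCs as stroma. AhR antagonists were paired with standard or investigational drugs, each dosed in half-log steps down from near clinical Cmax, or from 10 microM where Cmax was unknown.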
# [1] = second compound 0.1 µM, first compound 0.0316 µM
# [2] = second compound 0.1 µM, first compound 0.1 µM
# [3] = second compound 0.1 µM, first compound 0.316 µM
# [4] = second compound 0.1 µM, first compound 1 µM
# [5] = second compound 0.1 µM, first compound 3.16 µM
# [6] = second compound 0.1 µM, first compound 10 µM
# [7] = second compound 0.316 µM, first compound 0.0316 µM
# [8] = second compound 0.316 µM, first compound 0.1 µM
# [9] = second compound 0.316 µM, first compound 0.316 µM
# [10] = second compound 0.316 µM, first compound 1 µM
# [11] = second compound 0.316 µM, first compound 3.16 µM
# [12] = second compound 0.316 µM, first compound 10 µM
# [13] = second compound 1 µM, first compound 0.0316 µM
# [14] = second compound 1 µM, first compound 0.1 µM
# [15] = second compound 1 µM, first compound 0.316 µM
# [16] = second compound 1 µM, first compound 1 µM
# [17] = second compound 1 µM, first compound 3.16 µM
# [18] = second compound 1 µM, first compound 10 µM
# [19] = second compound 3.16 µM, first compound 0.0316 µM
# [20] = second compound 3.16 µM, first compound 0.1 µM
# [21] = second compound 3.16 µM, first compound 0.316 µM
# [22] = second compound 3.16 µM, first compound 1 µM
# [23] = second compound 3.16 µM, first compound 3.16 µM
# [24] = second compound 3.16 µM, first compound 10 µM
# [25] = second compound 10 µM, first compound 0.0316 µM
# [26] = second compound 10 µM, first compound 0.1 µM
# [27] = second compound 10 µM, first compound 0.316 µM
# [28] = second compound 10 µM, first compound 1 µM
# [29] = second compound 10 µM, first compound 3.16 µM
# [30] = second compound 10 µM, first compound 10 µM
# 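Further: exposure lasted 7 days after dosing on day 3 of spheroid growth.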
SMILES,IC50 (second compound 0.1 µM) [nM],IC50 (second compound 0.316 µM) [nM],IC50 (second compound 1 µM) [nM],IC50 (second compound 3.16 µM) [nM],IC50 (second compound 10 µM) [nM],"viability, T/C [1] [%]","viability, T/C [2] [%]","viability, T/C [3] [%]","viability, T/C [4] [%]","viability, T/C [5] [%]","viability, T/C [6] [%]","viability, T/C [7] [%]","viability, T/C [8] [%]","viability, T/C [9] [%]","viability, T/C [10] [%]","viability, T/C [11] [%]","viability, T/C [12] [%]","viability, T/C [13] [%]","viability, T/C [14] [%]","viability, T/C [15] [%]",other results
Nc1ccccc1NC(=O)c1ccc(CNC(=O)OCc2cccnc2)cc1 + Cc1cncc(-c2nc(NCCc3c[nH]c4ccccc34)c3ncn(C(C)C)c3n2)c1,607,664,834,1040,< 31.6,81.2,78.8,66.7,37,11.3,1.5,88.1,79.7,68.5,40.1,14.4,0.94,96.6,93.7,77.8,"viability, T/C [16]: 44.6%; viability, T/C [17]: 14.1%; viability, T/C [18]: 0.83%; viability, T/C [19]: 109%; viability, T/C [20]: 105%; viability, T/C [21]: 83.2%; viability, T/C [22]: 51.1%; viability, T/C [23]: 18.9%; viability, T/C [24]: 0.37%; viability, T/C [25]: 41.6%; viability, T/C [26]: 42.5%; viability, T/C [27]: 35.8%; viability, T/C [28]: 21.3%; viability, T/C [29]: 11.1%; viability, T/C [30]: 0.35%"
O=C(c1cc(Cc2n[nH]c(=O)c3ccccc23)ccc1F)N1CCN(C(=O)C2CC2)CC1 + Cc1cncc(-c2nc(NCCc3c[nH]c4ccccc34)c3ncn(C(C)C)c3n2)c1,> 10000,> 10000,> 10000,> 10000,> 10000,81.1,89.9,76.4,79.5,70.8,83.7,93.5,86.9,79.1,78.9,77.9,71.7,90,90.9,91,"viability, T/C [16]: 78.9%; viability, T/C [17]: 87%; viability, T/C [18]: 80%; viability, T/C [19]: 99.9%; viability, T/C [20]: 94.8%; viability, T/C [21]: 98.4%; viability, T/C [22]: 89.6%; viability, T/C [23]: 101%; viability, T/C [24]: 71.9%; viability, T/C [25]: 53.8%; viability, T/C [26]: 54.9%; viability, T/C [27]: 50.4%; viability, T/C [28]: 49.6%; viability, T/C [29]: 49.3%; viability, T/C [30]: 54.4%"
